The subject of series [1] is SARS-CoV-2. Kind of series: In vitro cytopathogenic effect / EC100 assay, K11777 and EIDD-1931, Vero E6. Type of series: cell-based. To be noted: for EC100: compound alone. Here is the method:
Controlled in vitro assays were conducted to measure the concentrations of K11777 and EIDD-1931 in combination required to induce 100% maximal response (EC100) for SARS-CoV-2 activity in the Vero E6 cell line. The concentrations of the combination are also compared to the concentrations required for each compound to achieve the same result individually.
Table 4 is split into two portions (a) and (b) above to accommodate page size. The first columns of 4(a) and (b) show concentration values from 10 μM (micromolar) to 0.078 μM. […] The designation “ND” indicates no cytopathogenic effect was detected.

For series [2], the system named is SARS-CoV-2. Kind of series: microbe, parasite or virus in culture. It is filed as cell-based. The note with it: read-out: Inhibition of Viral Infectivity EC50.
Series [3] can be described thus: Cytotoxicity to host cells, Vero E6. The note with it: African green monkey. Type of series: cell-based. Here is the method:
(§1) Controlled […] assays were conducted to measure the half-maximal effective concentration (EC50) of K777 required to prevent entry of SARS-CoV-2 in various cell lines, as well as cytotoxicity to the host cells (CC50).

Series [4] in a line: Cytotoxicity to host cells, A549/ACE2. Type of series: cell-based. The note with it: human. Here is the method: as §1
A short description of series [5]: Cytotoxicity to host cells, HeLa/ACE2. It is filed as cell-based. The note with it: human. How it is done:
as §1

A short description of series [6]: Cytotoxicity to host cells, Calu-3. Type of series: cell-based. The note with it: human, Calu-3 cells. Here is the method: as §1
Series [7] concerns SARS-CoV-2. Kind of series: Initial pilot study, non-human primate model, organ assessment at autopsy. Type of series: in vivo, African Green Monkey. To be noted: 100 mg/kg/day, 7 days, pretreated; autopsy day 7. Here is the method: An initial pilot study was conducted to determine the potential for efficacy of K777 against SARS-CoV-2 in a non-human primate model (African Green Monkey). The study included six subjects (N=6), with two controls receiving vehicle only and four receiving K777. Each subject was pretreated with K777 (100 mg/kg) or placebo (control). Each subject was then inoculated with SARS-CoV-2 at […] (3-4 hours after first dose of K777). Each subject was then treated with K777 for 6 additional days (7 days total) (100 mg/kg/day). Each subject was then sacrificed and an autopsy was performed at day 7. During the study, daily measurement of viral titers was performed via BAL, nasal swabs, and pharyngeal swabs. During autopsy, organ assessment was performed. The results are shown in Table 2.1 below and depicted in FIG. 4.

For series [8], the system named is SARS-CoV-2. Kind of series: Follow up pilot study, non-human primate model, organ assessment at autopsy. Type of series: in vivo, African Green Monkey. The note with it: for Lung weight % of weight / Lung weight Left lobe / Lung weight Right lobe / Lung weight Total: 7 days, autopsy day 7. How it is done: Following the initial pilot study, a follow up pilot study was conducted to further explore the potential for efficacy of K777 against SARS-CoV-2 in a non-human primate model (African Green Monkey). The study included eight subjects (N=8), with two controls and six receiving K777. Unlike in the initial pilot, in this follow-up pilot no subjects were pretreated with K777. Each subject was inoculated with SARS-CoV-2 for 8 hours. Each subject was then treated with K777 for 7 days (33 mg/kg/day (n=3) or 100 mg/kg/day (n=3)) or placebo (n=2). Each subject was then sacrificed, and an autopsy was performed at day 7. During the study, measurements of viral load were determined from serial nasal and pharyngeal swabs as well as brochoalveolar fluid (BAL) samples. During autopsy, organ assessment was performed. The results are shown in Tables 2.2, 2.3, 2.4 and 2.5 below and depicted in FIGS. 5 to 12. FIGS. 7 to 10 depict histological slides of lung tissue taken from the subjects in the follow up pilot study after completion of the study. FIG. 6 depicts histological slides of lung tissue taken from a normal human lung and from a human lung with diffuse alveolar damage (DAD) for comparison. In FIGS. 7 to 10, NB numbers are subject identifiers. In FIGS. 8 to 10, “RL” means right lung and “LL” means left lung. FIG. 11 depicts the histopathology shown in FIGS. 8 to 10 in one chart for side-by-side comparison. FIG. 12 depicts viral load for each group on day 1 and day 7 of the follow up pilot study.

Series [9] deals with SARS-CoV-2. Kind of series: Follow up pilot study, viral load in pharyngeal and nasal swabs and BAL. It is filed as in vivo, African Green Monkey.
Series [10] deals with SARS-CoV-2. Kind of series: In vitro cytopathogenic effect / EC100 assay, K11777 and Remdesivir, Vero E6. Type of series: cell-based. The note with it: for EC100: compound alone. How it is done:
Controlled in vitro assays were conducted to measure the concentrations of K11777 and Remdesivir in combination required to induce 100% maximal response (EC100) for SARS-CoV-2 activity in the Vero E6 cell line. The concentrations of the combination are also compared to the concentrations required for each compound to achieve the same result individually.
The designation “ND” indicates no cytopathogenic effect was detected. The designation “C” indicates the composition itself caused a cytotoxic effect. The designation “n/a” means no observation was made.

Where [11] appears, read: conc 0.078 uM (of K777 in combinations), Vero E6.
[12] abbreviates: conc 0.3125 uM (of K777 in combinations), Vero E6.
[13] abbreviates: African Green Monkey, SARS-CoV-2.
Setting [14] is: conc 0.1 μM (of K11777 in combinations).
Where [15] appears, read: conc 0.3 μM (of K11777 in combinations).
Where [16] appears, read: conc 1 μM (of K11777 in combinations).

Values joined by “and” are separate entries in the source; they are usually repeats but may differ in a detail not shown here. Equal entries are not always repeated. Where two headings read alike, the source gives them in different places. Bounds are passed on as bounds.

As to `O=c1[nH]/c(=N\O)ccn1[C@@H]1O[C@H](CO)[C@@H](O)[C@H]1O` [EIDD-1931, Beta-d-N4-hydroxycytidine, reference compound], the cytopathogenic effect entry in the series with SARS-CoV-2 [1] was “CPE”; in the series on SARS-CoV-2 [1] (setting [11]), “CPE”; in the series with SARS-CoV-2 [1] (setting [12]), “CPE”; in the series with SARS-CoV-2 [1] (conc 2.5 uM (of K777 in combinations), Vero E6) it was “CPE”. Besides, the EC100 with SARS-CoV-2 [1] (Vero E6) stood at 5 µM.

Take `CN1CCN(C(=O)N[C@@H](Cc2ccccc2)C(=O)N[C@H](/C=C/S(=O)(=O)c2ccccc2)CCc2ccccc2)CC1` [K777]: the EC50 in the series on SARS-CoV-2 [2] (Severe acute respiratory syndrome coronavirus 2, A549-ACE2, A549/ACE2) was less than 0.08 µM; with SARS-CoV-2 [2] (Severe acute respiratory syndrome coronavirus 2, Calu-3, Calu-3) it was 3 to 5 µM; in the series with SARS-CoV-2 [2] (Severe acute respiratory syndrome coronavirus 2, HeLa-ACE2, HeLa/ACE2), 0.004 µM. The CC50 in series [3], in [4], in [5] and in series [6] was greater than 10 µM in each case. Moreover, the “Lung weight % of weight” value in the series on SARS-CoV-2 [7] is 0.52% and 0.49% and 0.51% and 0.58%; with SARS-CoV-2 [8] (33 mg/kg/day) it was 0.66% and 0.95% and 0.54%; in the series with SARS-CoV-2 [8] (100 mg/kg/day) it was 0.50% and 0.46% and 0.56%. The “Lung weight Left lobe” value with SARS-CoV-2 [7] was 13.06 g and 12.79 g and 19.06 g and 21.72 g; with SARS-CoV-2 [8] (33 mg/kg/day), 24 g and 28 g and 17 g; in the series with SARS-CoV-2 [8] (100 mg/kg/day), 14 g and 15 g. Also, the “Lung weight Right lobe” value was 17.22 g and 16.99 g and 14.43 g and 16.84 g in the series on SARS-CoV-2 [7]; 20 g and 28 g and 24 g with SARS-CoV-2 [8] (33 mg/kg/day); 18 g and 19 g with SARS-CoV-2 [8] (100 mg/kg/day). For the same compound, the “Lung weight Total” value in the series with SARS-CoV-2 [7] was 30.28 g and 29.78 g and 33.49 g and 38.56 g; in the series on SARS-CoV-2 [8] (33 mg/kg/day) it was 44 g and 56 g and 41 g; with SARS-CoV-2 [8] (100 mg/kg/day), 32 g and 33 g and 34 g. Moreover, the Lymph enlargement with SARS-CoV-2 [7] was 2 fold and 2.5 fold. The “lung damage (histopathology)” value in the series on SARS-CoV-2 [8] (setting [13]) is “protected the lung against diffuse alveolar damage (DAD) and ARDS-like lung damage”. For the same compound, the “lung to body weight ratios” value in the series on SARS-CoV-2 [8] (both pilot studies) is reported as “able to maintain normal lung to body weight ratios”. Further, the “Viral Load -- Subgenomic E” value in the series with SARS-CoV-2 [9] (30 mg/kg/day, BAL, d5) is 3.69E+04 Eq. VC/mL; in the series with SARS-CoV-2 [9] (30 mg/kg/day, Nasal, d3) it was 1.62E+06 Eq. VC/mL; in the series with SARS-CoV-2 [9] (30 mg/kg/day, Nasal, d5), 2.07E+04 Eq. VC/mL and 1.91E+04 Eq. VC/mL; with SARS-CoV-2 [9] (100 mg/kg/day, BAL, d3), 2.45E+06 Eq. VC/mL and 1.58E+06 Eq. VC/mL; with SARS-CoV-2 [9] (100 mg/kg/day, Nasal, d3), 7.94E+07 Eq. VC/mL; with SARS-CoV-2 [9] (100 mg/kg/day, Phary, d3), 3.34E+07 Eq. VC/mL and 2.04E+07 Eq. VC/mL and 3.29E+07 Eq. VC/mL. In addition, the “Viral Load -- Genomic N1” value is 1.11E+09 Eq. VC/mL and 1.87E+09 Eq. VC/mL in the series on SARS-CoV-2 [9] (30 mg/kg/day, Phary, d3); 3.38E+08 Eq. VC/mL and 2.69E+08 Eq. VC/mL in the series on SARS-CoV-2 [9] (100 mg/kg/day, BAL, d1). The “Viral Load -- Subgenomic N” value with SARS-CoV-2 [9] (100 mg/kg/day, BAL, d3) was 1.31E+07 Eq. VC/mL and 7.93E+06 Eq. VC/mL; in the series on SARS-CoV-2 [9] (100 mg/kg/day, BAL, d7), 1.40E+05 Eq. VC/mL; in the series with SARS-CoV-2 [9] (100 mg/kg/day, Nasal, d7), 4.19E+06 Eq. VC/mL; in the series with SARS-CoV-2 [9] (100 mg/kg/day, Phary, d7), 3.64E+07 Eq. VC/mL and 5.51E+07 Eq. VC/mL. Besides, the “viral load as compared to the vehicle” value in the series with SARS-CoV-2 [9] (setting [13]) was “significantly reduced viral load as compared to the vehicle”. The EC100 was determined as 1 µM in the series on SARS-CoV-2 [10] and 2.5 µM in the series on SARS-CoV-2 [1] (Vero E6). The cytopathogenic effect result in the series with SARS-CoV-2 [10] (setting [14]) is “CPE”; in the series with SARS-CoV-2 [10] (setting [15]) it was “CPE”; in the series with SARS-CoV-2 [10] (setting [16]), “CPE”; with SARS-CoV-2 [1] (setting [11]), “CPE”; with SARS-CoV-2 [1] (conc 0.156 uM (of K777 in combinations), Vero E6), “CPE”; in the series on SARS-CoV-2 [1] (setting [12]) it was “CPE”. Further, the cytopathogenic effect result is listed as “CPE” in the series on SARS-CoV-2 [1] (conc 0.625 uM (of K777 in combinations), Vero E6) and “CPE” with SARS-CoV-2 [1] (conc 1.25 uM (of K777 in combinations), Vero E6).

`CCC(CC)COC(=O)[C@H](C)N[P@](=O)(OC[C@H]1O[C@@](C#N)(c2ccc3c(N)ncnn23)[C@H](O)[C@@H]1O)Oc1ccccc1` [Remdesivir]: the EC100 in the series with SARS-CoV-2 [10] came out at 3 µM. Further, the cytopathogenic effect entry in the series with SARS-CoV-2 [10] (conc 0.01 μM (of K11777 in combinations)), with SARS-CoV-2 [10] (conc 0.03 μM (of K11777 in combinations)), with SARS-CoV-2 [10] (setting [14]), in the series with SARS-CoV-2 [10] (setting [15]), with SARS-CoV-2 [10] (setting [16]) and in the series on SARS-CoV-2 [10] (conc 3 μM (of K11777 in combinations)) was “CPE” throughout.

Source of the values: US20230255957A1, “VIRAL ENTRY INHIBITORS AND RNA POLYMERASE INHIBITORS” (SELVA THERAPEUTICS, INC., priority 2020, published 2023).
